Measured values as given in US6914045B2, “Glycopeptide antibiotics” (Wyeth Holdings Corporation, priority 2001, dated 2005).
≈ marks a conversion by molar mass, not a printed value.

Columns and labels:
Assay in all cases: in vitro antibacterial evaluation, MIC by broth dilution
Assay type in all cases: cell-based
[1] = test system: Staphylococcus sp.; details: broth dilution, 18 hours at 35° C.
Procedure: (§1) Methods for in vitro Antibacterial Evaluation (Table 1)
(§2) The minimum inhibitory concentration (MIC), the lowest concentration of the antibiotic which inhibits growth of the test organism, is determined by the broth dilution method using Muller-Hinton II […] (Baltimore Biological Laboratories) following the recommendations of the National Committee for Clinical Laboratory Standards [Methods for dilution antimicrobial susceptibility tests for bacteria that grow aerobically, approved standard M7-A2, National Committee for Clinical Laboratory Standards, Villanova, Pa.].
(§3) An inoculum level of 5×10^5 CFU/mL, and a range of antibiotic concentrations (64-0.06 μg/mL) is used. […] The test organisms include a spectrum of Gram-positive bacteria comprised of Staphylococcus sp., Streptococcus sp. and Enterococcus sp. These organisms include recent clinical isolates that are resistant to methicillin, penicillin and/or vancomycin.

[2] = test system: Streptococcus sp.; details: broth dilution, 18 hours at 35° C.
Procedure: as §1, §2, §3

[3] = test system: Enterococcus sp.; details: broth dilution, 18 hours at 35° C.
Procedure: as §1, §2, §3

[4] = test system: Escherichia coli; details: 18 hours at 35° C.
Summary of the method: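 MIC is the lowest antibiotic concentration (tested 64-0.06 μg/mL) preventing growth of a 5×10^5 CFU/mL inoculum. Determined by broth dilution in Mueller-Hinton II medium following NCCLS standard M7-A2.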

MIC Staphylococcus aureus (ATCC 29213) ([1]; strain ATCC 29213): 4 µg/mL (≈ 2.13 µM) | MIC Staphylococcus aureus (GC 1131) ([1]; strain GC 1131): 8 µg/mL (≈ 4.26 µM) | MIC Staphylococcus aureus (GC 3051) ([1]; strain GC 3051): 4 µg/mL (≈ 2.13 µM) | MIC Staphylococcus aureus (GC 3053) ([1]; strain GC 3053): 4 µg/mL (≈ 2.13 µM) | MIC Staphylococcus aureus (GC 4541) ([1]; strain GC 4541): 4 µg/mL (≈ 2.13 µM) | MIC Staphylococcus aureus (GC 4542) ([1]; strain GC 4542): 4 µg/mL (≈ 2.13 µM) | MIC Staphylococcus aureus-SMITH (GC 4543) ([1]; strain GC 4543): 4 µg/mL (≈ 2.13 µM) | MIC Staphylococcus aureus (GC 4544) ([1]; strain GC 4544): 8 µg/mL (≈ 4.26 µM) | MIC Staphylococcus aureus (GC 4545) ([1]; strain GC 4545): 4 µg/mL (≈ 2.13 µM) | MIC Coagulase Negative Staphylococcus (GC 4547) ([1]; strain GC 4547): 4 µg/mL (≈ 2.13 µM) | MIC Coagulase Negative Staphylococcus (GC 4548) ([1]; strain GC 4548): 4 µg/mL (≈ 2.13 µM) | MIC Coagulase Negative Staphylococcus (GC 4549) ([1]; strain GC 4549): 2 µg/mL (≈ 1.06 µM) | MIC Coagulase Negative Staphylococcus (GC 4551) ([1]; strain GC 4551): 4 µg/mL (≈ 2.13 µM) | MIC Coagulase Negative Staphylococcus (GC 6257) ([1]; strain GC 6257): 4 µg/mL (≈ 2.13 µM) | MIC Streptococcus agalactiae (GC 4564) [2]: 4 µg/mL (≈ 2.13 µM) | MIC Streptococcus pneumoniae (ATCC 6301) [2]: 4 µg/mL (≈ 2.13 µM) | MIC Streptococcus pneumoniae (GC 1894) [2]: 8 µg/mL (≈ 4.26 µM) | MIC Streptococcus pneumoniae (GC 4565) [2]: 8 µg/mL (≈ 4.26 µM) | MIC Streptococcus pyogenes (GC 4563) [2]: 4 µg/mL (≈ 2.13 µM) | MIC Streptococcus pneumoniae (ATCC 6301) ([2]; strain ATCC 6301): 4 µg/mL (≈ 2.13 µM) | MIC Streptococcus pneumoniae (GC 1894) ([2]; strain GC 1894): 8 µg/mL (≈ 4.26 µM) | MIC Streptococcus pyogenes (GC 4563) ([2]; strain GC 4563): 4 µg/mL (≈ 2.13 µM) | MIC Streptococcus agalactiae (GC 4564) ([2]; strain GC 4564): 4 µg/mL (≈ 2.13 µM) | MIC Streptococcus pneumoniae (GC 4565) ([2]; strain GC 4565): 8 µg/mL (≈ 4.26 µM) | MIC Enterococcus avium (GC 4558) ([3]; Enterococcus avium (GC 4558)): 2 µg/mL (≈ 1.06 µM) | MIC Enterococcus faecalis (ATCC 29212) ([3]; Enterococcus faecalis (ATCC 29212)): 8 µg/mL (≈ 4.26 µM) | MIC Enterococcus faecalis (GC 4552) ([3]; Enterococcus faecalis (GC 4552)): 32 µg/mL (≈ 17 µM) | MIC Enterococcus faecalis (GC 4553) ([3]; Enterococcus faecalis (GC 4553)): 4 µg/mL (≈ 2.13 µM) | MIC Enterococcus faecalis (GC 4554) ([3]; Enterococcus faecalis (GC 4554)): 16 µg/mL (≈ 8.52 µM) | MIC Enterococcus faecalis (GC 6189) ([3]; Enterococcus faecalis (GC 6189)): 8 µg/mL (≈ 4.26 µM) | MIC Enterococcus faecium (GC 2243) ([3]; Enterococcus faecium (GC 2243)): 8 µg/mL (≈ 4.26 µM) | MIC Enterococcus faecium (GC 4556) ([3]; Enterococcus faecium (GC 4556)): 32 µg/mL (≈ 17 µM) | MIC Enterococcus faecium (GC 4557) ([3]; Enterococcus faecium (GC 4557)): 4 µg/mL (≈ 2.13 µM) | MIC Enterococcus avium (GC 4558) [3]: 2 µg/mL (≈ 1.06 µM) | MIC Enterococcus faecalis (ATCC 29212) [3]: 8 µg/mL (≈ 4.26 µM) | MIC Enterococcus faecalis (GC 2242) [3]: 16 µg/mL (≈ 8.52 µM) | MIC Enterococcus faecalis (GC 2691) [3]: 8 µg/mL (≈ 4.26 µM) | MIC Enterococcus faecalis (GC 3059) [3]: 32 µg/mL (≈ 17 µM) | MIC Enterococcus faecalis (GC 4552) [3]: 32 µg/mL (≈ 17 µM) | MIC Enterococcus faecalis (GC 4553) [3]: 4 µg/mL (≈ 2.13 µM) | MIC Enterococcus faecalis (GC 4554) [3]: 16 µg/mL (≈ 8.52 µM) | MIC Enterococcus faecalis (GC 6189) [3]: 8 µg/mL (≈ 4.26 µM) | MIC Enterococcus faecium (GC 2243) [3]: 8 µg/mL (≈ 4.26 µM) | MIC Enterococcus faecium (GC 4556) [3]: 32 µg/mL (≈ 17 µM) | MIC Enterococcus faecium (GC 4557) [3]: 4 µg/mL (≈ 2.13 µM) | MIC Enterococcus faecalis (GC 2242) ([3]; strain GC 2242): 16 µg/mL (≈ 8.52 µM) | MIC Enterococcus faecalis (GC 2691) ([3]; strain GC 2691): 8 µg/mL (≈ 4.26 µM) | MIC Enterococcus faecalis (GC 3059) ([3]; strain GC 3059): 32 µg/mL (≈ 17 µM) | MIC Escherichia coli (ATCC 25922) [4]: >128 µg/mL | MIC Escherichia coli (GC 4559) [4]: >128 µg/mL | MIC Escherichia coli (GC 4560) [4]: 2 µg/mL (≈ 1.06 µM)
Structure (SMILES): CC(c1ccccc1)C1NC(=O)CNC(=O)C(CO)NC(=O)C(C(O)C2CN(Cc3ccccc3)C(=NCc3ccccc3)N2C2OC(CO)C(O)C(O)C2O)NC(=O)C(C(O)C2CN(Cc3ccccc3)C(=NCc3ccccc3)N2Cc2ccccc2)NC(=O)C(Cc2ccc(OC3OC(CO)C(OC4OC5COC6(OC5C(O)C4O)C4CC5CC(C4)CC6C5)C(O)C3O)cc2)NC1=O (stereo not drawn) [Example 79, Cyclo[glycyl-β-methylphenylalanyl-O-[4-O-[4,6-O-(2-adamantylidene)hexotpyranosyl]hexopyranosyl]tyrosyl-3-[1,3-dibenzyl-2-(benzylimino)imidazolidin-4-yl]seryl-3-[1-benzyl-2-(benzylimino)-3-hexopyranosylimidazolidin-4-yl]serylseryl]]
MIC Staphylococcus haemolyticus (GC 4546) ([1]; strain GC 4546): 4 µg/mL (≈ 2.13 µM)
